Measured values published in ChEMBL document CHEMBL1146252, “Discovery and SAR study of novel dihydroquinoline-containing glucocorticoid receptor agonists” (Bioorg Med Chem Lett, 2007).
The source made the active and inactive calls. No cut-off for these calls is given here.

Legend:
[1] = biological target: T1, Progesterone receptor (Homo sapiens, UniProt P06401); assay: Displacement of RU486 from human progesterone receptor by fluorescence polarization assay
T1 sequence (P06401 whole entry): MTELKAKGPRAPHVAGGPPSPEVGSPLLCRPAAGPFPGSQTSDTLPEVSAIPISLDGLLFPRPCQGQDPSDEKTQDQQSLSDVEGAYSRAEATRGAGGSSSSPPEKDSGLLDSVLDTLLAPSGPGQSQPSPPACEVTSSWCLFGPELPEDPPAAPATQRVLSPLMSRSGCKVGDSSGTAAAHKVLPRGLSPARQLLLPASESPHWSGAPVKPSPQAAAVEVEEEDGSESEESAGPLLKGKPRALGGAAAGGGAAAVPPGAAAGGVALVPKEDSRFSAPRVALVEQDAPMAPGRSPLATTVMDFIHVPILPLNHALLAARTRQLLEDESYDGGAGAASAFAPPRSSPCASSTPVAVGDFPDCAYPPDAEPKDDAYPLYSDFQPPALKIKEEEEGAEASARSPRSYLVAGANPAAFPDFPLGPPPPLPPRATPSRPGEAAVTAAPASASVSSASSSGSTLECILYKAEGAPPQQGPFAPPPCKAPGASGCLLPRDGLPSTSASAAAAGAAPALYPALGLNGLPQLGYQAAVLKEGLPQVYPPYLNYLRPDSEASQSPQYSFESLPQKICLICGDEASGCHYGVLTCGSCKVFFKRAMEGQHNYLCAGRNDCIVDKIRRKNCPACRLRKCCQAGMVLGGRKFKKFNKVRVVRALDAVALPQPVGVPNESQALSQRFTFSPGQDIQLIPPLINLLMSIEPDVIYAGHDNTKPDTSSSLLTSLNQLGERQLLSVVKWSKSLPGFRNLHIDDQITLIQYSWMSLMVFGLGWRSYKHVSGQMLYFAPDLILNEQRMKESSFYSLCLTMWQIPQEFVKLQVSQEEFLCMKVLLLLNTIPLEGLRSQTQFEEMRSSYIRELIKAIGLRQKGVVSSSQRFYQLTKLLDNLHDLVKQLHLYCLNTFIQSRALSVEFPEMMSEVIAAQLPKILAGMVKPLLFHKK

[2] = biological target: T2, Glucocorticoid receptor (Homo sapiens, UniProt P04150); assay: Displacement of Dexamethasone from human glucocorticoid receptor by fluorescence polarization assay
T2 sequence (P04150 whole entry): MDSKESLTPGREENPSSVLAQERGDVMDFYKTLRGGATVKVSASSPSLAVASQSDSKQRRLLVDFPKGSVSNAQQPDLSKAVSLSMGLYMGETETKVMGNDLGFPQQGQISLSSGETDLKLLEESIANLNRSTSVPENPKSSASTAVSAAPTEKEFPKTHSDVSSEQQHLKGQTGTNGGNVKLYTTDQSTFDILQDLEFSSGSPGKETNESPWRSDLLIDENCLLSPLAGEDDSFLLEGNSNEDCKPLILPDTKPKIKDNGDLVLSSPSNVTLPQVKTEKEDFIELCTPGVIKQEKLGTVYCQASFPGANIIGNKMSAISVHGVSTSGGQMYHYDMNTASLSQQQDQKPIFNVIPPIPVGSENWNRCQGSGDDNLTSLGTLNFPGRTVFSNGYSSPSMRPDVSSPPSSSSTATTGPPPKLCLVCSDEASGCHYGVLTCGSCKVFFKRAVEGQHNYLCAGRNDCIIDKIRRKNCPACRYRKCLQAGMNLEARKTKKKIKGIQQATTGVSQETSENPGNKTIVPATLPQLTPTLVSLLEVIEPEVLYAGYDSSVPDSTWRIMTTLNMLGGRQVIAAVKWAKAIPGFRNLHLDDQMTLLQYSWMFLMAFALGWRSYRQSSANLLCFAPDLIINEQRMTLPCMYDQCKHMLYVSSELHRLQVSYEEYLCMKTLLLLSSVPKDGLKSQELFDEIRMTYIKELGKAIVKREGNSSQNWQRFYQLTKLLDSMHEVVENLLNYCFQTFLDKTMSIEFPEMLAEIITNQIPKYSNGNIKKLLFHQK

[3] = biological target: T3, Estrogen receptor (Homo sapiens, UniProt P03372); assay: Displacement of fluormone from human estrogen receptor by fluorescence binding assay
T3 sequence (P03372 whole entry): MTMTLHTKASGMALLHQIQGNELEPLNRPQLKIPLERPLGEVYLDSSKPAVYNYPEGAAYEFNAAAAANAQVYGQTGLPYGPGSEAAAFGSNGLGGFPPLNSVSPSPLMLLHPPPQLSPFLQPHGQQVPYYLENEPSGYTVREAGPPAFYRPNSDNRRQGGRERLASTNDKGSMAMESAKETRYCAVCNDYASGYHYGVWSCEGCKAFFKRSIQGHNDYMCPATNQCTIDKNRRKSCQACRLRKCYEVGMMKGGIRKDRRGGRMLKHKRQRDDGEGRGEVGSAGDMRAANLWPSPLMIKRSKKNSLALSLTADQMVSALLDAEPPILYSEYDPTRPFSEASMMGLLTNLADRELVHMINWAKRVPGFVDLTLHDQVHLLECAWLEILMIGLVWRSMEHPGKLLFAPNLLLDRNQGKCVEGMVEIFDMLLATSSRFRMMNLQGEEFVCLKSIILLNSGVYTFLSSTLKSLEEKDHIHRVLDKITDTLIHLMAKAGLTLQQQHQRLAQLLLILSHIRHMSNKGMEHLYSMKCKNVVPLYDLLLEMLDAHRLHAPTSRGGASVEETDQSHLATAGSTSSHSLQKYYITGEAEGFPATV

[4] = biological target: T4, Mineralocorticoid receptor (Homo sapiens, UniProt P08235); assay: Displacement of Dexamethasone from human mineralocorticoid receptor by fluorescence polarization assay
T4 sequence (P08235 whole entry): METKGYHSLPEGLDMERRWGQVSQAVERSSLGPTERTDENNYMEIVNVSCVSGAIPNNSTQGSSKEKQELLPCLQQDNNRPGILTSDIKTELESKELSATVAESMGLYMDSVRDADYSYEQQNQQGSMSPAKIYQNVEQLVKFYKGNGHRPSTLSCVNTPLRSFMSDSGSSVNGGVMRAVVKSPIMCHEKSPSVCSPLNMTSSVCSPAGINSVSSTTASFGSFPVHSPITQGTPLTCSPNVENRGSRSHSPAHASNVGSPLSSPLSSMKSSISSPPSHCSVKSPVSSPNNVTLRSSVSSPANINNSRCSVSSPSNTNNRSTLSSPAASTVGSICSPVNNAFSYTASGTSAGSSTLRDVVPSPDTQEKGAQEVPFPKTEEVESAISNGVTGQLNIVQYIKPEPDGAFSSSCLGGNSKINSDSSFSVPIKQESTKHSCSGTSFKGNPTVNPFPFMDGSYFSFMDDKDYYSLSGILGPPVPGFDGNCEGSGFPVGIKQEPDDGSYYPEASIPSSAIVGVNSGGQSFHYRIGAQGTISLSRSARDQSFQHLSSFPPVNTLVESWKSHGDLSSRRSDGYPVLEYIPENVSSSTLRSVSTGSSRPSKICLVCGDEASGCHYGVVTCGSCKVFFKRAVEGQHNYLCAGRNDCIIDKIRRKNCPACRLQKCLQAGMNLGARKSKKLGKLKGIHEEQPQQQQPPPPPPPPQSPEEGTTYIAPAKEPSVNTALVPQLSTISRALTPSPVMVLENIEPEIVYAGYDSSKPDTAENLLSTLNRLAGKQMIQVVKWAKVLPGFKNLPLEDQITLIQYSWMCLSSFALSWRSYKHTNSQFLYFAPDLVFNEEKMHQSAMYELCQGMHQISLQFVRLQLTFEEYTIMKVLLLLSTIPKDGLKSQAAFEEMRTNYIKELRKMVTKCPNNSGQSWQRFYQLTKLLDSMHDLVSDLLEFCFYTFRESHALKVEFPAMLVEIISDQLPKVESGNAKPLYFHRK

[5] = Metabolic stability in human liver microsomes; assay type: ADME, Microsome
[6] = system: Fibroblast; assay: Inhibition of IL1-induced IL6 production in foreskin fibroblasts after 24 hrs; assay type: functional, cell-based
[7] = system: Fibroblast; assay: Inhibition of IL1-induced IL6 production in foreskin fibroblasts at 2000 nM after 24 hrs relative to Dexamethasone; assay type: functional, Homo sapiens

| IC50 [1] [µM] | IC50 [2] [µM] | SMILES | other results |
| --- | --- | --- | --- |
| > 2 | 0.404 | COc1ccccc1-c1ccc2c(c1)C(C(C)OCCc1ccccc1)=CC(C)(C)N2 (stereo not drawn) |  |
| > 2 | 0.4 | COc1ccccc1-c1ccc2c(c1)C(C(C)OCCC1CCCCC1)=CC(C)(C)N2 (stereo not drawn) |  |
|  |  | C=CCSCC1=CC(C)(C)Nc2ccc(-c3cc(F)ccc3OC)cc21 | IC50 [3]: > 2 µM; IC50 [4]: > 2 µM; half-life [5]: 12 min; Activity ([6]; Homo sapiens): inactive |
| 0.98 | 0.395 | COc1ccccc1-c1ccc2c(c1)C(C(C)OCC=C(C)C)=CC(C)(C)N2 (stereo not drawn) |  |
| > 2 | > 2 | C=CCOC(C1=CC(C)(C)Nc2ccc(-c3ccccc3OC)cc21)c1ccccc1 (stereo not drawn) |  |
| 1.3 | 0.195 | COc1ccc(F)cc1-c1ccc2c(c1)C(C(C)OCCc1ccccc1)=CC(C)(C)N2 (stereo not drawn) |  |
| 0.93 | 0.185 | COc1ccccc1-c1ccc2c(c1)C(C(C)OCCc1ccc(Cl)cc1)=CC(C)(C)N2 (stereo not drawn) |  |
| 1.9 | 0.275 | COc1ccccc1-c1ccc2c(c1)C(C(C)OCCc1cccc(Cl)c1)=CC(C)(C)N2 (stereo not drawn) |  |
| 0.44 | > 2 | C=CCOC(CC=C)C1=CC(C)(C)Nc2ccc(-c3ccccc3OC)cc21 (stereo not drawn) |  |
| 0.33 | 0.355 | C=CCOC(CC)C1=CC(C)(C)Nc2ccc(-c3ccccc3OC)cc21 (stereo not drawn) |  |
| 1.6 | 0.565 | CC/C=C/COC(C)C1=CC(C)(C)Nc2ccc(-c3ccccc3OC)cc21 (stereo not drawn) |  |
| > 2 | > 2 | C=CC[S+]([O-])CC1=CC(C)(C)Nc2ccc(-c3ccccc3OC)cc21 (stereo not drawn) |  |
|  |  | COc1ccc(F)cc1-c1ccc2c(c1)C(CSCCc1ccccc1)=CC(C)(C)N2 | IC50 [3]: > 2 µM; half-life [5]: 17 min; Activity ([6]; Homo sapiens): inactive |
| 1.2 | > 2 | C=CCOC(Cc1ccccc1)C1=CC(C)(C)Nc2ccc(-c3ccccc3OC)cc21 (stereo not drawn) |  |
| 0.54 | 1.06 | COc1ccccc1-c1ccc2c(c1)C(C(C)OC)=CC(C)(C)N2 (stereo not drawn) |  |
| 1 | > 2 | C=CCOC(CCc1ccccc1)C1=CC(C)(C)Nc2ccc(-c3ccccc3OC)cc21 (stereo not drawn) |  |
| 0.95 | 0.71 | C=CCOC(C1=CC(C)(C)Nc2ccc(-c3ccccc3OC)cc21)C(C)C (stereo not drawn) |  |
| > 2 | 0.29 | COc1ccccc1-c1ccc2c(c1)C(C(C)OCCc1ccccc1Cl)=CC(C)(C)N2 (stereo not drawn) |  |
| 0.6 | 0.116 | C=CCSC(C)C1=CC(C)(C)Nc2ccc(-c3ccccc3OC)cc21 (stereo not drawn) |  |
| 1.3 | 0.21 | C/C=C/COC(C)C1=CC(C)(C)Nc2ccc(-c3ccccc3OC)cc21 (stereo not drawn) |  |
| > 2 | > 2 | C=CCOC(CCC)C1=CC(C)(C)Nc2ccc(-c3ccccc3OC)cc21 (stereo not drawn) |  |

| SMILES | IC50 [1] [µM] | IC50 [2] [µM] | other results |
| --- | --- | --- | --- |
| C=CCOC(C)C1=CC(C)(C)Nc2ccc(-c3ccccc3OC)cc21 (stereo not drawn) | 0.48 | 0.116 |  |
| Br.C=CCOC(C)C1=CC(C)(C)Nc2ccc(-c3cc(F)ccc3OC)cc21 (single isomer, unassigned; (+)) | 0.17 | 0.04 | IC50 [3]: > 2 µM; IC50 [4]: 1.1 µM; half-life [5]: 6 min; IC50 ([6]; fibroblast): 0.17 µM; inhibition at 2 µM ([7]; Homo sapiens, Fibroblast, 24 h): 28% |
| COc1ccccc1-c1ccc2c(c1)C(C(C)OCCCc1ccccc1)=CC(C)(C)N2 (stereo not drawn) | > 2 | 0.26 |  |
| C=CCOC(C)C1=CC(C)(C)Nc2ccc(-c3cc(F)ccc3OC)cc21 (racemic) | 0.451 | 0.034 | IC50 [4]: 0.97 µM; half-life [5]: 6 min |
| C=CCOC(C)C1=CC(C)(C)Nc2ccc(-c3cc(F)ccc3OC)cc21.Cl (single isomer, unassigned; (-)) | 0.62 | 0.11 | IC50 [4]: > 2 µM; half-life [5]: 5 min; IC50 ([6]; Homo sapiens, Fibroblast, 24 h): 0.26 µM; Inhibition [7]: 46% |
| COc1ccccc1-c1ccc2c(c1)C(C(C)OC/C=C/c1ccccc1)=CC(C)(C)N2 (stereo not drawn) | > 2 | 0.98 |  |
